Test results taken from US8580809B2, “Filamin A-binding anti-inflammatory analgesic” (Pain Therapeutics, Inc., priority 2009, dated 2013).

Target: T1, mu opiate receptor (MOR) (Rattus norvegicus, UniProt P33535)
T1 construct: from tissue; host or cells: rat striatal membrane preparation
Test: MOR agonist activity using [35S]GTPγS binding assay in striatal membranes
Type: biochemical
Details: for MOR agonist activity, [35S]GTPγS binding to Gαo, FLNA-binding compound as agonist 0.1 μM: 0.1 μM compound; for MOR agonist activity, [35S]GTPγS binding to Gαo, FLNA-binding compound as agonist 0.1 μM / MOR agonist activity, [35S]GTPγS binding to Gαo, FLNA-binding compound as agonist 1 μM: striatal membranes; for MOR agonist activity, [35S]GTPγS binding to Gαo, 1 μM + BFNA: 1 μM compound + 1 μM β-funaltrexamine; for MOR agonist activity, [35S]GTPγS binding to Gαo, FLNA-binding compound as agonist 1 μM: 1 μM compound
Procedure: To assess the mu opiate receptor (MOR) agonist activity of positive compounds from the FLNA screening, compounds were tested in a [^35S]GTPγS binding assay using striatal membranes.
Striatal tissue was homogenized in 10 volumes of ice cold 25 mM HEPES buffer, pH 7.4, which contained 1 mM EGTA, 100 mM sucrose, 50 μg/ml leupeptin, 0.04 mM PMSF, 2 μg/ml soybean trypsin inhibitor and 0.2% 2-mercaptoethanol. The homogenates were centrifuged at 800×g for 5 minutes and the supernatants were centrifuged at 49,000×g for 20 minutes.
The resultant striatal membrane preparation (200 μg) was admixed and maintained (incubated) at 30° C. for 5 minutes in reaction buffer as above that additionally contained 1 mM MgCl2 and 0.5 nM [^35S]GTPγS (0.1 μCi/assay, PerkinElmer Life and Analytical Sciences) in a total volume of 250 μl and continued for 5 minutes in the absence or presence of 0.1-10 μM of an assayed compound of interest. The reaction was terminated by dilution with 750 μl of ice-cold reaction buffer that contained 20 mM MgCl2 and 1 mM EGTA and immediate centrifugation at 16,000×g for 5 minutes.
The resulting pellet was solubilized by sonicating for 10 seconds in 0.5 ml of immunoprecipitation buffer containing 0.5% digitonin, 0.2% sodium cholate and 0.5% NP-40. Normal rabbit serum (1 μl) was added to 1 ml of lysate and incubated at 25° C. for 30 minutes. Nonspecific immune complexes were removed by incubation with 25 μl of protein A/G-conjugated agarose beads at 25° C. for 30 minutes followed by centrifugation at 5,000×g at 4° C. for 5 minutes. The supernatant was divided and separately incubated at 25° C. for 30 minutes with antibodies raised against Gαo proteins (1:1,000 dilutions).
The immunocomplexes so formed were collected by incubation at 25° C. for 30 minutes with 40 μl of agarose-conjugated protein A/G beads and centrifugation at 5,000×g at 4° C. for 5 minutes. The pellet was washed and suspended in buffer containing 50 mM Tris-HCl, pH 8.0, and 1% NP-40. The radioactivity in the suspension was determined by liquid scintillation spectrometry. […] DAMGO (H-Tyr-D-Ala-Gly-N-MePhe-Gly-OH; 1 or 10 μM) was used as a positive control.

T1 sequence (P33535 whole entry): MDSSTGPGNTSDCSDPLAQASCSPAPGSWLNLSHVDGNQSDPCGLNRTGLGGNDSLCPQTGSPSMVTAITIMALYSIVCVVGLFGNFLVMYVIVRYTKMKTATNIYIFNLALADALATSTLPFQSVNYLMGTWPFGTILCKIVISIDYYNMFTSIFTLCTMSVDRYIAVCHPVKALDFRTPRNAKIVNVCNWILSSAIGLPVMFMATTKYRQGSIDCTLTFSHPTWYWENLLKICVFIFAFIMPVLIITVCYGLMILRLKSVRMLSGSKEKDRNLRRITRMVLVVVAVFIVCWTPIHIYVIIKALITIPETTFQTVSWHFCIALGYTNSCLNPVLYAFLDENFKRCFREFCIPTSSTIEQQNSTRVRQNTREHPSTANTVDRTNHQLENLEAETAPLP

Row | SMILES | MOR agonist activity, [35S]GTPγS binding to Gαo, FLNA-binding compound as agonist 0.1 μM [%] | MOR agonist activity, [35S]GTPγS binding to Gαo, 1 μM + BFNA [%] | MOR agonist activity, [35S]GTPγS binding to Gαo, FLNA-binding compound as agonist 1 μM [%]
1 | CC(=O)c1ccc(C(=O)N2CCOC23CCN(S(=O)(=O)c2ccc(C(C)=O)cc2)CC3)cc1 [Compound C0053] | 104.0 | 93.1 | 157.2
2 | COC(=O)c1ccc(S(=O)(=O)N2CCC3(CC2)OCCN3S(=O)(=O)c2ccc(C(=O)OC)cc2)cc1 [Compound C0028] | 93.9 | 78.4 | 132.4
3 | COc1ccc(NC(=O)N2CCC3(CC2)OCCN3C(=O)Nc2ccc(OC)cc2)cc1 [Compound C0151M] | 346.8 | 212.8 | 397.6
4 | COc1cc(S(=O)(=O)N2CCC3(CC2)OCCN3S(=O)(=O)c2cc(OC)c(OC)c(OC)c2)cc(OC)c1OC [Compound C0062] | 127.8 | 59.8 | 310.5
5 | O=S(=O)(c1ccc(Cl)cc1)N1CCC2(CC1)OCCN2S(=O)(=O)c1ccc(Cl)cc1 [Compound C0067] | 142.7 | 33.5 | 179.0
6 | COc1ccccc1S(=O)(=O)N1CCC2(CC1)OCCN2S(=O)(=O)c1ccccc1OC [Compound C0003] | 162.3 | 107.7 | 215.9
7 | O=S(=O)(c1ccc(-c2ccccc2)cc1)N1CCC2(CC1)OCCN2S(=O)(=O)c1ccc(-c2ccccc2)cc1 [Compound C0010] | 136.5 | 89.1 | 307.0
8 | O=S(=O)(c1ccc(C(F)(F)F)cc1Br)N1CCC2(CC1)OCCN2S(=O)(=O)c1ccc(C(F)(F)F)cc1Br [Compound C0071] | 276.3 | 177.1 | 355.3
9 | COc1ccc(S(=O)(=O)N2CCC3(CC2)OCCN3S(=O)(=O)c2ccc(C(C)=O)cc2)cc1 [Compound C0048] | 209.1 | 89.9 | 245.3
10 | O=C1CN(Cc2ccccc2)C2(CCN(S(=O)(=O)c3cc(Cl)cc(Cl)c3O)CC2)N1 [Compound C0138M] | 126.9 | 51.5 | 183.9
11 | COc1ccc(NC(=O)N2CCC3(CC2)OCCN3S(=O)(=O)c2ccc(OC)cc2)cc1 [Compound C0041] | 186.1 | 95.5 | 244.4
12 | COc1ccc(S(=O)(=O)N2CCC3(CC2)OCCN3S(=O)(=O)c2ccc(OC)cc2)cc1 [Compound 7866] | 152.3 | 62.4 | 308.2
13 | O=S(=O)(c1ccc(Br)c(C(F)(F)F)c1)N1CCC2(CC1)OCCN2S(=O)(=O)c1ccc(Br)c(C(F)(F)F)c1 [Compound C0077] | 192.7 | 136.7 | 265.4
14 | CC(=O)Nc1ccc(S(=O)(=O)N2CCC3(CC2)OCCN3S(=O)(=O)c2ccc(NC(C)=O)cc2)cc1 [Compound C0013] | 156.6 | 39.6 | 301.2
